# Data published in ChEMBL document CHEMBL3885881, “DrugMatrix”.
# Species: Rattus norvegicus
# Assay: DrugMatrix - Regimen: Daily Repeat
# Assay type: toxicity, organism-based, Sprague-Dawley
# Set-up: regimen Daily Repeat, gender Male, age 6-8 weeks
# Conditions: in vivo, po, route oral GAVAGE, […]; for ABSOLUTE BASOPHIL / ABSOLUTE EOSINOPHIL / ABSOLUTE LYMPHOCYTE / ABSOLUTE MONOCYTE / ABSOLUTE SEGMENTED NEUTROPHIL / BASOPHIL / EOSINOPHIL / ERYTHROCYTE COUNT / HEMATOCRIT / HEMOGLOBIN / LEUKOCYTE COUNT / LYMPHOCYTE / MEAN CORPUSCULAR HEMOGLOBIN / MEAN CORPUSCULAR HEMOGLOBIN CONCENTRATION / MEAN CORPUSCULAR VOLUME / MONOCYTE / NEUTROPHIL / NUCLEATED RED BLOOD CELLS / PLATELET COUNT: tissue Blood; for ALANINE AMINOTRANSFERASE / ALBUMIN / ALKALINE PHOSPHATASE / ASPARTATE AMINOTRANSFERASE / BLOOD UREA NITROGEN / CARBON DIOXIDE / CHLORIDE / CHOLESTEROL / CREATINE PHOSPHOKINASE / CREATININE / GLUCOSE / LACTATE DEHYDROGENASE / LIPASE / PHOSPHORUS / POTASSIUM / SODIUM / TOTAL BILIRUBIN / TOTAL PROTEIN / URIC ACID: tissue Plasma
# [1] = 24 mg/kg, 72 h, dose level Low, time 3 day
# [2] = 24 mg/kg, 120 h, dose level Low, time 5 day
# [3] = 93 mg/kg, 72 h, dose level High, time 3 day
# [4] = 93 mg/kg, 120 h, dose level High, time 5 day
smiles,measurement,setting,value
Cc1cccc(Nc2ccccc2C(=O)O)c1C [MEFENAMIC ACID],ABSOLUTE BASOPHIL,[1],0 CELLS/uL
same,ABSOLUTE EOSINOPHIL,[1],120.67 CELLS/uL
same,ABSOLUTE LYMPHOCYTE,[1],16868.33 CELLS/uL
same,ABSOLUTE MONOCYTE,[1],133 CELLS/uL
same,ABSOLUTE SEGMENTED NEUTROPHIL,[1],1478 CELLS/uL
same,BASOPHIL,[1],0%
same,EOSINOPHIL,[1],0.67%
same,ERYTHROCYTE COUNT,[1],5.76 x10E6/uL
same,HEMATOCRIT,[1],38.77%
same,HEMOGLOBIN,[1],15.4 G/DL
same,LEUKOCYTE COUNT,[1],18.6 x10E3/uL
same,LYMPHOCYTE,[1],90.67%
same,MEAN CORPUSCULAR HEMOGLOBIN,[1],26.73 pg
same,MEAN CORPUSCULAR HEMOGLOBIN CONCENTRATION,[1],39.73 G/DL
same,MEAN CORPUSCULAR VOLUME,[1],67.37 fL
same,MONOCYTE,[1],0.67%
same,NEUTROPHIL,[1],8%
same,NUCLEATED RED BLOOD CELLS,[1],0 /100WBC
same,PLATELET COUNT,[1],1314.33 x10E3/uL
same,ALANINE AMINOTRANSFERASE,[1],80.67 u/L
same,ALBUMIN,[1],4.33 G/DL
same,ALKALINE PHOSPHATASE,[1],454.67 u/L
same,ASPARTATE AMINOTRANSFERASE,[1],99.67 u/L
same,BLOOD UREA NITROGEN,[1],12 mg/dL
same,CARBON DIOXIDE,[1],32 mmol/L
same,CHLORIDE,[1],102.33 MEQ/L
same,CHOLESTEROL,[1],71 mg/dL
same,CREATINE PHOSPHOKINASE,[1],725 u/L
same,CREATININE,[1],0.28 mg/dL
same,GLUCOSE,[1],165.67 mg/dL
same,LACTATE DEHYDROGENASE,[1],174.67 u/L
same,LIPASE,[1],13 u/L
same,PHOSPHORUS,[1],13.37 mg/dL
same,POTASSIUM,[1],6.54 MEQ/L
same,SODIUM,[1],146.73 MEQ/L
same,TOTAL BILIRUBIN,[1],0.2 mg/dL
same,TOTAL PROTEIN,[1],6 G/DL
same,URIC ACID,[1],1.83 mg/dL
same,ABSOLUTE BASOPHIL,[2],0 CELLS/uL
same,ABSOLUTE EOSINOPHIL,[2],0 CELLS/uL
same,ABSOLUTE LYMPHOCYTE,[2],17204 CELLS/uL
same,ABSOLUTE MONOCYTE,[2],113.33 CELLS/uL
same,ABSOLUTE SEGMENTED NEUTROPHIL,[2],1482.67 CELLS/uL
same,BASOPHIL,[2],0%
same,EOSINOPHIL,[2],0%
same,ERYTHROCYTE COUNT,[2],5.87 x10E6/uL
same,HEMATOCRIT,[2],36.9%
same,HEMOGLOBIN,[2],14.47 G/DL
same,LEUKOCYTE COUNT,[2],18.8 x10E3/uL
same,LYMPHOCYTE,[2],91.33%
same,MEAN CORPUSCULAR HEMOGLOBIN,[2],24.67 pg
same,MEAN CORPUSCULAR HEMOGLOBIN CONCENTRATION,[2],39.23 G/DL
same,MEAN CORPUSCULAR VOLUME,[2],62.87 fL
same,MONOCYTE,[2],0.67%
same,NEUTROPHIL,[2],8%
same,NUCLEATED RED BLOOD CELLS,[2],0.33 /100WBC
same,PLATELET COUNT,[2],1359 x10E3/uL
same,ALANINE AMINOTRANSFERASE,[2],61.67 u/L
same,ALBUMIN,[2],4.17 G/DL
same,ALKALINE PHOSPHATASE,[2],457.33 u/L
same,ASPARTATE AMINOTRANSFERASE,[2],87.33 u/L
same,BLOOD UREA NITROGEN,[2],13.33 mg/dL
same,CARBON DIOXIDE,[2],31.33 mmol/L
same,CHLORIDE,[2],101.67 MEQ/L
same,CHOLESTEROL,[2],67.67 mg/dL
same,CREATINE PHOSPHOKINASE,[2],379.33 u/L
same,CREATININE,[2],0.19 mg/dL
same,GLUCOSE,[2],144.67 mg/dL
same,LACTATE DEHYDROGENASE,[2],449.33 u/L
same,LIPASE,[2],11.33 u/L
same,PHOSPHORUS,[2],11.87 mg/dL
same,POTASSIUM,[2],6.54 MEQ/L
same,SODIUM,[2],145.2 MEQ/L
same,TOTAL BILIRUBIN,[2],0.2 mg/dL
same,TOTAL PROTEIN,[2],5.97 G/DL
same,URIC ACID,[2],1.43 mg/dL
same,ABSOLUTE BASOPHIL,[3],0 CELLS/uL
same,ABSOLUTE EOSINOPHIL,[3],46.33 CELLS/uL
same,ABSOLUTE LYMPHOCYTE,[3],12604 CELLS/uL
same,ABSOLUTE MONOCYTE,[3],348.67 CELLS/uL
same,ABSOLUTE SEGMENTED NEUTROPHIL,[3],1701 CELLS/uL
same,BASOPHIL,[3],0%
same,EOSINOPHIL,[3],0.33%
same,ERYTHROCYTE COUNT,[3],5.47 x10E6/uL
same,HEMATOCRIT,[3],35.43%
same,HEMOGLOBIN,[3],13.77 G/DL
same,LEUKOCYTE COUNT,[3],14.7 x10E3/uL
same,LYMPHOCYTE,[3],85.67%
same,MEAN CORPUSCULAR HEMOGLOBIN,[3],25.17 pg
same,MEAN CORPUSCULAR HEMOGLOBIN CONCENTRATION,[3],38.9 G/DL
same,MEAN CORPUSCULAR VOLUME,[3],64.77 fL
same,MONOCYTE,[3],2.33%
same,NEUTROPHIL,[3],11.67%
same,NUCLEATED RED BLOOD CELLS,[3],0.33 /100WBC
same,PLATELET COUNT,[3],1191.33 x10E3/uL
same,ALANINE AMINOTRANSFERASE,[3],64.33 u/L
same,ALBUMIN,[3],3.93 G/DL
same,ALKALINE PHOSPHATASE,[3],288.33 u/L
same,ASPARTATE AMINOTRANSFERASE,[3],83 u/L
same,BLOOD UREA NITROGEN,[3],11 mg/dL
same,CARBON DIOXIDE,[3],34 mmol/L
same,CHLORIDE,[3],101.67 MEQ/L
same,CHOLESTEROL,[3],82 mg/dL
same,CREATINE PHOSPHOKINASE,[3],546.33 u/L
same,CREATININE,[3],0.16 mg/dL
same,GLUCOSE,[3],149 mg/dL
same,LACTATE DEHYDROGENASE,[3],123 u/L
same,LIPASE,[3],11 u/L
same,PHOSPHORUS,[3],12.4 mg/dL
same,POTASSIUM,[3],6.65 MEQ/L
same,SODIUM,[3],145.07 MEQ/L
same,TOTAL BILIRUBIN,[3],0.17 mg/dL
same,TOTAL PROTEIN,[3],5.63 G/DL
same,URIC ACID,[3],1.57 mg/dL
same,ABSOLUTE BASOPHIL,[4],0 CELLS/uL
same,ABSOLUTE EOSINOPHIL,[4],0 CELLS/uL
same,ABSOLUTE LYMPHOCYTE,[4],16873.67 CELLS/uL
same,ABSOLUTE MONOCYTE,[4],0 CELLS/uL
same,ABSOLUTE SEGMENTED NEUTROPHIL,[4],1459.67 CELLS/uL
same,BASOPHIL,[4],0%
same,EOSINOPHIL,[4],0%
same,ERYTHROCYTE COUNT,[4],5.73 x10E6/uL
same,HEMATOCRIT,[4],35.9%
same,HEMOGLOBIN,[4],14.23 G/DL
same,LEUKOCYTE COUNT,[4],18.33 x10E3/uL
same,LYMPHOCYTE,[4],92%
same,MEAN CORPUSCULAR HEMOGLOBIN,[4],24.87 pg
same,MEAN CORPUSCULAR HEMOGLOBIN CONCENTRATION,[4],39.63 G/DL
same,MEAN CORPUSCULAR VOLUME,[4],62.73 fL
same,MONOCYTE,[4],0%
same,NEUTROPHIL,[4],8%
same,NUCLEATED RED BLOOD CELLS,[4],0.33 /100WBC
same,PLATELET COUNT,[4],1419 x10E3/uL
same,ALANINE AMINOTRANSFERASE,[4],66.67 u/L
same,ALBUMIN,[4],4.3 G/DL
same,ALKALINE PHOSPHATASE,[4],382.67 u/L
same,ASPARTATE AMINOTRANSFERASE,[4],85 u/L
same,BLOOD UREA NITROGEN,[4],11.67 mg/dL
same,CARBON DIOXIDE,[4],31.67 mmol/L
same,CHLORIDE,[4],101.33 MEQ/L
same,CHOLESTEROL,[4],76.67 mg/dL
same,CREATINE PHOSPHOKINASE,[4],196.33 u/L
same,CREATININE,[4],0.14 mg/dL
same,GLUCOSE,[4],143 mg/dL
same,LACTATE DEHYDROGENASE,[4],166.33 u/L
same,LIPASE,[4],11.33 u/L
same,PHOSPHORUS,[4],12.5 mg/dL
same,POTASSIUM,[4],6.98 MEQ/L
same,SODIUM,[4],144.2 MEQ/L
same,TOTAL BILIRUBIN,[4],0.17 mg/dL
same,TOTAL PROTEIN,[4],6.23 G/DL
same,URIC ACID,[4],2.33 mg/dL
